Test results reported in the NIST ThermoML archive (doi:10.1021/je700261b).

Assay: xn = mol fraction of the nth substance listed
Settings: Liquid

CCCCO [butan-1-ol] + O=C=O
Settings | mass density [kg/m3]
342.94 K, 13074 kPa, x2 = 0.5965 | 795.03
342.94 K, 14051 kPa, x2 = 0.5965 | 797.49
342.94 K, 15068 kPa, x2 = 0.5965 | 799.99
342.94 K, 15189 kPa, x2 = 0.8663 | 716.88
342.94 K, 16052 kPa, x2 = 0.8663 | 728.37
342.94 K, 16064 kPa, x2 = 0.5965 | 802.35
342.94 K, 17059 kPa, x2 = 0.8663 | 740.13
342.94 K, 17076 kPa, x2 = 0.5965 | 804.68
342.94 K, 18027 kPa, x2 = 0.8663 | 749.98
342.94 K, 18056 kPa, x2 = 0.5965 | 806.85
342.94 K, 19037 kPa, x2 = 0.5965 | 808.99
342.94 K, 19050 kPa, x2 = 0.8663 | 759.3
342.94 K, 20036 kPa, x2 = 0.8663 | 767.54
342.94 K, 20067 kPa, x2 = 0.5965 | 811.18
342.94 K, 21031 kPa, x2 = 0.5965 | 813.15
342.94 K, 21038 kPa, x2 = 0.8663 | 775.36
342.94 K, 22050 kPa, x2 = 0.5965 | 815.2
342.94 K, 22085 kPa, x2 = 0.8663 | 782.79
342.94 K, 23030 kPa, x2 = 0.5965 | 817.14
342.94 K, 23032 kPa, x2 = 0.8663 | 789.07
342.94 K, 24031 kPa, x2 = 0.5965 | 819.08
342.94 K, 24045 kPa, x2 = 0.8663 | 795.41
342.94 K, 25028 kPa, x2 = 0.5965 | 820.94
342.94 K, 25042 kPa, x2 = 0.8663 | 801.31
343 K, 6024 kPa, x2 = 0.1842 | 782.23
343 K, 7050 kPa, x2 = 0.1842 | 783.43
343 K, 8037 kPa, x2 = 0.1842 | 784.59
343 K, 9052 kPa, x2 = 0.1842 | 785.73
343 K, 10057 kPa, x2 = 0.1842 | 786.87
343 K, 11053 kPa, x2 = 0.1842 | 787.96
343 K, 12027 kPa, x2 = 0.1842 | 789.03
343 K, 13076 kPa, x2 = 0.1842 | 790.12
343 K, 14026 kPa, x2 = 0.1842 | 791.16
343 K, 15081 kPa, x2 = 0.1842 | 792.24
343 K, 16028 kPa, x2 = 0.1842 | 793.21
343 K, 17031 kPa, x2 = 0.1842 | 794.24
343 K, 18020 kPa, x2 = 0.1842 | 795.22
343 K, 19009 kPa, x2 = 0.1842 | 796.2
343 K, 20030 kPa, x2 = 0.1842 | 797.2
343 K, 21066 kPa, x2 = 0.1842 | 798.2
343 K, 21978 kPa, x2 = 0.1842 | 799.07
343 K, 23062 kPa, x2 = 0.1842 | 800.09
343 K, 24031 kPa, x2 = 0.1842 | 801.02
343 K, 25044 kPa, x2 = 0.1842 | 801.97
352.77 K, 1022 kPa, x2 = 0.0251 | 763.98
352.77 K, 2029 kPa, x2 = 0.0251 | 765.11
352.77 K, 3006 kPa, x2 = 0.0251 | 766.15
352.77 K, 4015 kPa, x2 = 0.0251 | 767.17
352.77 K, 5041 kPa, x2 = 0.0251 | 768.25
352.77 K, 5988 kPa, x2 = 0.0251 | 769.24
352.77 K, 7026 kPa, x2 = 0.0251 | 770.25
352.77 K, 8000 kPa, x2 = 0.0251 | 771.2
352.77 K, 9059 kPa, x2 = 0.0251 | 772.24
352.77 K, 10017 kPa, x2 = 0.0251 | 773.14
352.77 K, 11016 kPa, x2 = 0.0251 | 774.17
352.77 K, 12004 kPa, x2 = 0.0251 | 775.04
352.77 K, 13003 kPa, x2 = 0.0251 | 775.95
352.77 K, 14039 kPa, x2 = 0.0251 | 776.91
352.77 K, 14988 kPa, x2 = 0.0251 | 777.75
352.77 K, 16084 kPa, x2 = 0.0251 | 778.74
352.77 K, 17004 kPa, x2 = 0.0251 | 779.54
352.77 K, 18003 kPa, x2 = 0.0251 | 780.41
352.77 K, 19004 kPa, x2 = 0.0251 | 781.28
352.77 K, 20007 kPa, x2 = 0.0251 | 782.15
352.77 K, 21029 kPa, x2 = 0.0251 | 783.01
352.77 K, 22044 kPa, x2 = 0.0251 | 783.86
352.77 K, 22995 kPa, x2 = 0.0251 | 784.65
352.77 K, 24056 kPa, x2 = 0.0251 | 785.52
352.77 K, 25098 kPa, x2 = 0.0251 | 786.41
352.79 K, 18068 kPa, x2 = 0.9698 | 596.97
352.79 K, 18999 kPa, x2 = 0.9698 | 619.03
352.79 K, 20007 kPa, x2 = 0.9698 | 639.88
352.79 K, 21053 kPa, x2 = 0.9698 | 659.01
352.79 K, 22011 kPa, x2 = 0.9698 | 674.59
352.79 K, 23058 kPa, x2 = 0.9698 | 690
352.79 K, 24106 kPa, x2 = 0.9698 | 703.93
352.79 K, 25050 kPa, x2 = 0.9698 | 715.49
352.82 K, 6041 kPa, x2 = 0.1842 | 772.14
352.82 K, 7041 kPa, x2 = 0.1842 | 773.4
352.82 K, 8024 kPa, x2 = 0.1842 | 774.6
352.82 K, 9042 kPa, x2 = 0.1842 | 775.87
352.82 K, 10044 kPa, x2 = 0.1842 | 777.07
352.82 K, 11026 kPa, x2 = 0.1842 | 778.23
352.82 K, 12073 kPa, x2 = 0.1842 | 779.44
